Laboratory results: PubChem BioAssay AID2060487 (Molecular Pharmacology Branch, DTP, NCI, 2025)

Test system: 997537-175-T-J1-PDC complex spheroid viability
Experiment: Anticancer human tumor 997537-175-T-J1-PDC patient-derived colon adenocarcinoma cell line growth inhibition [GQUAD]
Conditions: for IC50: curve of first compound; for viability, T/C: stronger effect = lower value
In short: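 Multi-cell-type spheroids of tumor cells with HUVEC and mesenchymal stem cells, treated with drug combinations. Concentrations descend in half-log steps from near clinical Cmax, or from 10 microM where Cmax is unknown; viability read-out.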

[1] = second compound 0.0316 µM, first compound 0.0316 µM
[2] = second compound 0.0316 µM, first compound 0.1 µM
[3] = second compound 0.0316 µM, first compound 0.316 µM
[4] = second compound 0.0316 µM, first compound 1 µM
[5] = second compound 0.0316 µM, first compound 3.16 µM
[6] = second compound 0.0316 µM, first compound 10 µM
[7] = second compound 0.1 µM, first compound 0.0316 µM
[8] = second compound 0.1 µM, first compound 0.1 µM
[9] = second compound 0.1 µM, first compound 0.316 µM
[10] = second compound 0.1 µM, first compound 1 µM
[11] = second compound 0.1 µM, first compound 3.16 µM
[12] = second compound 0.1 µM, first compound 10 µM
[13] = second compound 0.316 µM, first compound 0.0316 µM
[14] = second compound 0.316 µM, first compound 0.1 µM
[15] = second compound 0.316 µM, first compound 0.316 µM
[16] = second compound 0.316 µM, first compound 1 µM
[17] = second compound 0.316 µM, first compound 3.16 µM
[18] = second compound 0.316 µM, first compound 10 µM
[19] = second compound 1 µM, first compound 0.0316 µM
[20] = second compound 1 µM, first compound 0.1 µM
[21] = second compound 1 µM, first compound 0.316 µM
[22] = second compound 1 µM, first compound 1 µM
[23] = second compound 1 µM, first compound 3.16 µM
[24] = second compound 1 µM, first compound 10 µM
[25] = second compound 3.16 µM, first compound 0.0316 µM
[26] = second compound 3.16 µM, first compound 0.1 µM
[27] = second compound 3.16 µM, first compound 0.316 µM
[28] = second compound 3.16 µM, first compound 1 µM
[29] = second compound 3.16 µM, first compound 3.16 µM
[30] = second compound 3.16 µM, first compound 10 µM
[31] = second compound 10 µM, first compound 0.0316 µM
[32] = second compound 10 µM, first compound 0.1 µM
[33] = second compound 10 µM, first compound 0.316 µM
[34] = second compound 10 µM, first compound 1 µM
[35] = second compound 10 µM, first compound 3.16 µM
[36] = second compound 10 µM, first compound 10 µM
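Further: spheroids exposed to the agents for 7 days.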
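Wherever viability, T/C is given: 100% = DMSO vehicle control viability.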

`C=CC(=O)N1CCN(c2nc(=O)n(-c3c(C)ccnc3C(C)C)c3nc(-c4c(O)cccc4F)c(F)cc23)C(C)C1` (stereo unspecified) + Cc1cnc(CNC(=O)c2c(=O)c3ccc(N4CCCN(C)CC4)nc3n3c2sc2ccccc23)cn1 was tested. Which IC50 (second compound 0.0316 µM) did it give?
Its IC50 is greater than 10 µM.

What about the IC50 (second compound 0.1 µM) of the same compound?
Its IC50 is greater than 10 µM.

And the IC50 (second compound 0.316 µM)?
Its IC50 is greater than 10 µM.

And the IC50 (second compound 1 µM)?
The IC50 was greater than 10 µM.

And the IC50 (second compound 3.16 µM)?
The IC50 was greater than 10 µM.

What about the IC50 (second compound 10 µM) of the same compound?
The IC50 was greater than 10 µM.

What about the viability, T/C [1] of the same compound?
Its viability, T/C is 102%.

What about the viability, T/C [2] of the same compound?
Its viability, T/C is 90.1%.

And the viability, T/C [3]?
Its viability, T/C is 93.8%.

And the viability, T/C [4]?
The viability, T/C was 71.5%.

What about the viability, T/C [5] of the same compound?
The viability, T/C was 77%.

And the viability, T/C [6]?
Its viability, T/C is 87.7%.

And the viability, T/C [7]?
Its viability, T/C is 98.8%.

What about the viability, T/C [8] of the same compound?
Its viability, T/C is 77.7%.

And the viability, T/C [9]?
Its viability, T/C is 87.5%.

What about the viability, T/C [10] of the same compound?
The viability, T/C was 64.5%.

And the viability, T/C [11]?
The viability, T/C was 102%.

What about the viability, T/C [12] of the same compound?
Its viability, T/C is 91.4%.

And the viability, T/C [13]?
Its viability, T/C is 84.7%.

What about the viability, T/C [14] of the same compound?
The viability, T/C was 85%.

And the viability, T/C [15]?
The viability, T/C was 85.4%.

What about the viability, T/C [16] of the same compound?
Its viability, T/C is 94.9%.

What about the viability, T/C [17] of the same compound?
Its viability, T/C is 89.4%.

What about the viability, T/C [18] of the same compound?
The viability, T/C was 90.4%.

What about the viability, T/C [19] of the same compound?
The viability, T/C was 93.7%.

What about the viability, T/C [20] of the same compound?
Its viability, T/C is 100%.

What about the viability, T/C [21] of the same compound?
The viability, T/C was 99%.

And the viability, T/C [22]?
The viability, T/C was 95%.

What about the viability, T/C [23] of the same compound?
Its viability, T/C is 102%.

And the viability, T/C [24]?
Its viability, T/C is 99.2%.

And the viability, T/C [25]?
The viability, T/C was 68.9%.

What about the viability, T/C [26] of the same compound?
The viability, T/C was 115%.

What about the viability, T/C [27] of the same compound?
Its viability, T/C is 96.5%.

What about the viability, T/C [28] of the same compound?
Its viability, T/C is 102%.

And the viability, T/C [29]?
The viability, T/C was 103%.

What about the viability, T/C [30] of the same compound?
Its viability, T/C is 94.4%.

What about the viability, T/C [31] of the same compound?
Its viability, T/C is 84.1%.

And the viability, T/C [32]?
The viability, T/C was 83.5%.

What about the viability, T/C [33] of the same compound?
Its viability, T/C is 114%.

What about the viability, T/C [34] of the same compound?
The viability, T/C was 87.7%.

What about the viability, T/C [35] of the same compound?
The viability, T/C was 95.3%.

And the viability, T/C [36]?
The viability, T/C was 118%.

What does the source list for `COc1cccc2c1C(=O)c1c(O)c3c(c(O)c1C2=O)CC(O)(C(=O)CO)CC3OC1CC(N)C(O)C(C)O1` (stereo unspecified) + CN(C)c1ccc(Nc2c3ccc(NC(=O)CCN4CCCC4)cc3nc3cc(NC(=O)CCN4CCCC4)ccc23)cc1?
IC50 (second compound 0.0316 µM): 6.55 µM; IC50 (second compound 0.1 µM): 8.54 µM; IC50 (second compound 0.316 µM): > 10 µM; IC50 (second compound 1 µM): > 10 µM; IC50 (second compound 3.16 µM): > 10 µM; IC50 (second compound 10 µM): > 10 µM; viability, T/C [1]: 98%; viability, T/C [2]: 88.9%; viability, T/C [3]: 99.1%; viability, T/C [4]: 96.3%; viability, T/C [5]: 71.7%; viability, T/C [6]: 37.4%; viability, T/C [7]: 111%; viability, T/C [8]: 88.3%; viability, T/C [9]: 77.6%; viability, T/C [10]: 94.8%; viability, T/C [11]: 96.2%; viability, T/C [12]: 42.9%; viability, T/C [13]: 89.5%; viability, T/C [14]: 88.5%; viability, T/C [15]: 101%; viability, T/C [16]: 102%; viability, T/C [17]: 94.6%; viability, T/C [18]: 56.5%; viability, T/C [19]: 63.7%; viability, T/C [20]: 86.7%; viability, T/C [21]: 101%; viability, T/C [22]: 83.8%; viability, T/C [23]: 97%; viability, T/C [24]: 51.5%; viability, T/C [25]: 74.8%; viability, T/C [26]: 77.1%; viability, T/C [27]: 107%; viability, T/C [28]: 90%; viability, T/C [29]: 99%; viability, T/C [30]: 67.3%; viability, T/C [31]: 94.1%; viability, T/C [32]: 84.2%; viability, T/C [33]: 102%; viability, T/C [34]: 83.3%; viability, T/C [35]: 81%; viability, T/C [36]: 58.2%

Which IC50 (second compound 0.0316 µM) does the source give for `COc1cccc2c1C(=O)c1c(O)c3c(c(O)c1C2=O)CC(O)(C(=O)CO)CC3OC1CC(N)C(O)C(C)O1` (stereo unspecified) + Cc1cnc(CNC(=O)c2c(=O)c3ccc(N4CCCN(C)CC4)nc3n3c2sc2ccccc23)cn1 here?
Its IC50 is greater than 10 µM.

And the IC50 (second compound 0.1 µM)?
The IC50 was greater than 10 µM.

And the IC50 (second compound 0.316 µM)?
The IC50 was 8.33 µM.

And the IC50 (second compound 1 µM)?
Its IC50 is 7.33 µM.

And the IC50 (second compound 3.16 µM)?
The IC50 was 5.89 µM.

And the IC50 (second compound 10 µM)?
The IC50 was 6.25 µM.

And the viability, T/C [1]?
Its viability, T/C is 112%.

And the viability, T/C [2]?
Its viability, T/C is 74.6%.

And the viability, T/C [3]?
The viability, T/C was 97.5%.

What about the viability, T/C [4] of the same compound?
Its viability, T/C is 93.6%.

And the viability, T/C [5]?
Its viability, T/C is 80%.

What about the viability, T/C [6] of the same compound?
Its viability, T/C is 52.8%.

And the viability, T/C [7]?
Its viability, T/C is 107%.

And the viability, T/C [8]?
Its viability, T/C is 76.5%.

What about the viability, T/C [9] of the same compound?
Its viability, T/C is 94%.

And the viability, T/C [10]?
The viability, T/C was 90.8%.

And the viability, T/C [11]?
Its viability, T/C is 86.5%.

And the viability, T/C [12]?
The viability, T/C was 55.2%.

What about the viability, T/C [13] of the same compound?
The viability, T/C was 82.3%.

And the viability, T/C [14]?
Its viability, T/C is 90.4%.

What about the viability, T/C [15] of the same compound?
The viability, T/C was 115%.

What about the viability, T/C [16] of the same compound?
The viability, T/C was 98.5%.

What about the viability, T/C [17] of the same compound?
The viability, T/C was 87%.

What about the viability, T/C [18] of the same compound?
Its viability, T/C is 42.5%.

What about the viability, T/C [19] of the same compound?
Its viability, T/C is 91.5%.

What about the viability, T/C [20] of the same compound?
The viability, T/C was 68.4%.

What about the viability, T/C [21] of the same compound?
Its viability, T/C is 116%.

And the viability, T/C [22]?
The viability, T/C was 106%.

And the viability, T/C [23]?
The viability, T/C was 88%.

What about the viability, T/C [24] of the same compound?
The viability, T/C was 36%.

What about the viability, T/C [25] of the same compound?
Its viability, T/C is 69.7%.

What about the viability, T/C [26] of the same compound?
Its viability, T/C is 81.3%.

What about the viability, T/C [27] of the same compound?
Its viability, T/C is 78%.

What about the viability, T/C [28] of the same compound?
The viability, T/C was 103%.

What about the viability, T/C [29] of the same compound?
The viability, T/C was 93.4%.

And the viability, T/C [30]?
Its viability, T/C is 20.1%.

And the viability, T/C [31]?
The viability, T/C was 75.8%.

And the viability, T/C [32]?
Its viability, T/C is 77.4%.

And the viability, T/C [33]?
The viability, T/C was 109%.

And the viability, T/C [34]?
Its viability, T/C is 91.9%.

And the viability, T/C [35]?
Its viability, T/C is 93.2%.

And the viability, T/C [36]?
The viability, T/C was 22.7%.
